From patent US20040110826A1, “Receptor Antagonists” (priority 2001, published 2004)

biological target: T1, α2C-adrenoceptor (Homo sapiens, UniProt P18825); assay: α2c-Adrenoceptor binding test (3H-MK-912 binding, HepG2 cell membrane fraction); parameters: the membrane fraction of the cultured cells was used; endogenous in cells; host or cells: HepG2 (human hepatoma) cell membrane fraction; conditions: 0.5 h, test compound 10^−7 mol/l, read-out: Inhibition ratio (%) against α2c-adrenoceptor binding
T1 sequence (P18825 1-462): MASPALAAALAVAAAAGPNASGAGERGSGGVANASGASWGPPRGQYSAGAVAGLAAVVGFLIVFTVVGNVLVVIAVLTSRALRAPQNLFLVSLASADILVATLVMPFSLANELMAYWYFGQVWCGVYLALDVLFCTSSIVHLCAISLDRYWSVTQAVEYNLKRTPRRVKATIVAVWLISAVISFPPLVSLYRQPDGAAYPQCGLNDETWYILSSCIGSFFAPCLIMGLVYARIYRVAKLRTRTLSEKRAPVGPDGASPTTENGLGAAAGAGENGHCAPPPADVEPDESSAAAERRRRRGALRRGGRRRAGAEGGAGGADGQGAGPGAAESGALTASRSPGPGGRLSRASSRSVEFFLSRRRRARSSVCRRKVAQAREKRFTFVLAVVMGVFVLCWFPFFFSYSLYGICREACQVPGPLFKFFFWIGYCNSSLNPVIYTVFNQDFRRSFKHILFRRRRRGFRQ
Experimental: Adrenoceptor Binding Activity (α2c-Adrenoceptor Binding Test)
This test was carried out according to the method of Schaak et al. [Journal of Pharmacological Experimental Therapeutics, Vol. 281, p. 983 (1997)] as slightly modified.
Human hepatocyto HepG2 cells were cultured in DMEM medium (GIBCO BRL) containing 10% fetal bovine serum (FBS), 100 units/ml penicillin and 100 μg/ml streptomycin, and the membrane fraction of the cultured cells was used. The cultured cells were washed with phosphate-buffered saline (PBS), then scraped with a scraper and recovered by centrifugation at 800 rpm for 5 minutes. To the cells was added a buffer [50 mmol/l tris(hydroxymethyl)aminomethane: Tris, 5 mmol/l ethylenediamine tetraacetic acid (EDTA), pH 7.5], and the cells were suspended using Polytron Homogenizer (Kinematica), followed by centrifugation at 39,000×g for 10 minutes. The precipitate thus obtained was re-suspended in the same amount of the buffer, and the cell suspension was obtained by centrifugation and removing the supernatant in a similar manner.
To 100 μl of the cell suspension were added 80 μl of tritium-labeled MK-912 (methyl-^3H: 2.89 TBq/mmol; New England Nuclear) (final concentration: 1.0 nmol/l) and 20 μl of a test compound. The mixture was allowed to stand at 25° C. for 30 minutes and then rapidly filtered by suction through a glass fiber filter treated with 0.3% polyethyleneimine (GF/C; Whatman). The filter was immediately washed 3 times with 200 μl of an ice-cooled buffer and transferred to a vial. A liquid scintillator (ULTIMA GOLD; Packard) was added thereto and the radioactivity was measured with a liquid scintillation counter (Packard).
The inhibition ratio of the test compound against the α2C-adrenoceptor binding (^3H-MK-912 binding) was calculated using the following equation.
Inhibition ratio (%)={1−(amount of the binding in the presence of the test compound−amount of the nonspecific binding)/(amount of the total binding−amount of the nonspecific binding)}×100
(Note) Amount of the total binding means the amount of radioactivity of ^3H-MK-912 bound in the absence of the test compound. Amount of the nonspecific binding means the amount of radioactivity of ^3H-MK-912 bound in the presence of 10 μmol/l Yohimbine (Sigma). Amount of the binding in the presence of the test compound means the amount of radioactivity of ^3H-MK-912 bound in the presence of varied concentrations of the test compound.

Compound | inhibition at 0.1 µM
Nc1ncc(CN2CCN(c3ccccc3)CC2)c2nc(-c3cccnc3)nn12 [Compound 144, 5-Amino-8-(4-phenylpiperazin-1-ylmethyl)-2-(3-pyridyl)[1,2,4]triazolo[1,5-c]pyrimidine] | 75%
COCCNc1ncc(CN2CCc3ccccc3C2)c2nc(-c3ccco3)nn12 [Compound 127, 2-(2-Furyl)-5-(2-methoxyethylamino)-8-(1,2,3,4-tetrahydroisoquinolin-2-ylmethyl)[1,2,4]triazolo[1,5-c]pyrimidine] | 68%
Nc1ncc(CNCC2COc3ccccc3O2)c2nc(-c3ccco3)nn12 (stereo not shown) [Compound 213, 5-Amino-8-(1,4-benzodioxan-2-ylmethylaminomethyl)-2-(2-furyl)[1,2,4]triazolo[1,5-c]pyrimidine] | 96%
Cc1ccc2c(c1)CN(Cc1cnc(N)n3nc(-c4ccco4)nc13)CC2 [Compound 195, 5-Amino-2-(2-furyl)-8-(7-methyl-1,2,3,4-tetrahydroisoquinolin-2-ylmethyl)[1,2,4]triazolo[1,5-c]pyrimidine] | 87%
COc1cc2c(cc1OC)CN(Cc1cnc(NCCCO)n3nc(-c4ccco4)nc13)CC2 [Compound 182, 8-(6,7-Dimethoxy-1,2,3,4-tetrahydroisoquinolin-2-ylmethyl)-2-(2-furyl)-5-(3-hydroxypropylamino)[1,2,4]triazolo[1,5-c]pyrimidine] | 72%
CSc1ncc(CN2CCc3ccccc3C2)c2nc(-c3ccco3)nn12 [Compound 452, 2-(2-Furyl)-5-methylthio-8-(1,2,3,4-tetrahydroisoquinolin-2-ylmethyl)[1,2,4]triazolo[1,5-c]pyrimidine] | 58%
CN(Cc1ccccc1)c1ncc(CN2CCN(c3ccccc3F)CC2)c2nc(-c3ccco3)nn12 [Compound 370, 8-[4-(2-Fluorophenyl)piperazin-1-ylmethyl]-2-(2-furyl)-5-(N-methylbenzylamino)[1,2,4]triazolo[1,5-c]pyrimidine] | 91%
Nc1ncc(CN2CCc3ccccc3C2)c2nc(-c3ccco3)nn12 [Compound 19, 5-Amino-2-(2-furyl)-8-(1,2,3,4-tetrahydroisoquinolin-2-ylmethyl)[1,2,4]triazolo[1,5-c]pyrimidine] | 96%
N#Cc1ccccc1N1CCN(Cc2cnc(N)n3nc(-c4ccco4)nc23)CC1 [Compound 59, 5-Amino-8-[4-(2-cyanophenyl)piperazin-1-ylmethyl]-2-(2-furyl)[1,2,4]triazolo[1,5-c]pyrimidine] | 65%
Nc1ncc(CN2CCN(c3ncccn3)CC2)c2nc(-c3ccco3)nn12 [Compound 23, 5-Amino-2-(2-furyl)-8-[4-(2-pyrimidinyl)piperazin-1-ylmethyl][1,2,4]triazolo[1,5-c]pyrimidine] | 70%
C1=C(CN2CCc3ccccc3C2)c2nc(-c3ccco3)nn2C2=NCCN12 [Compound 491, 2-(2-Furyl)-4-(1,2,3,4-tetrahydroisoquinolin-2-ylmethyl)-6,7-dihydro-1,3,5a,8,8b-pentaaza-as-indacene] | 74%
Cc1ccccc1N1CCN(Cc2cnc(N)n3nc(-c4ccco4)nc23)CC1 [Compound 55, 5-Amino-2-(2-furyl)-8-[4-(2-methylphenyl)piperazin-1-ylmethyl][1,2,4]triazolo[1,5-c]pyrimidine] | 92%
Nc1ncc(CN2CCN(c3ccccc3)CC2)c2nc(C3CCCCC3)nn12 [Compound 166, 5-Amino-2-cyclohexyl-8-(4-phenylpiperazin-1-ylmethyl)[1,2,4]triazolo[1,5-c]pyrimidine] | 84%

Second part, the compound after the results:

inhibition at 0.1 µM | Compound
80% | Nc1ncc(CN2CCN(c3ccccc3)CC2)c2nc(-c3ccco3)nn12 [Compound 2, 5-Amino-2-(2-furyl)-8-(4-phenylpiperazin-1-ylmethyl)[1,2,4]triazolo[1,5-c]pyrimidine]
60% | O=c1[nH]cc(CN2CCN(c3ccccc3)CC2)c2nc(-c3ccco3)nn12 [Compound 483, 2-(2-Furyl)-8-(4-phenylpiperazin-1-ylmethyl)-6H-[1,2,4]triazolo[1,5-c]pyrimidin-5-one]
83% | Nc1ncc(CN2CCC(c3ccccc3)CC2)c2nc(-c3ccco3)nn12 [Compound 203, 5-Amino-2-(2-furyl)-8-(4-phenylpiperidinomethyl)[1,2,4]triazolo[1,5-c]pyrimidine]
86% | COc1ccc2c(c1)CCN(Cc1cnc(N)n3nc(-c4ccco4)nc13)C2 [Compound 89, 5-Amino-2-(2-furyl)-8-(6-methoxy-1,2,3,4-tetrahydroisoquinolin-2-ylmethyl)[1,2,4]triazolo[1,5-c]pyrimidine]
88% | Nc1ncc(CN2CCN(c3ccccc3F)CC2)c2nc(-c3ccco3)nn12 [Compound 45, 5-Amino-8-[4-(2-fluorophenyl)piperazin-1-ylmethyl]-2-(2-furyl)[1,2,4]triazolo[1,5-c]pyrimidine]
91% | Nc1ncc(CN2CCN(c3ccccc3Cl)CC2)c2nc(-c3ccco3)nn12 [Compound 49, 5-Amino-8-[4-(2-chlorophenyl)piperazin-1-ylmethyl]-2-(2-furyl)[1,2,4]triazolo[1,5-c]pyrimidine]
